Measured values: patent US9802901B2, “Antibacterial 2H-indazole derivatives” (priority 2013, dated 2017)
In brackets after ≈: the same amount, converted by molar mass.

Assays:
Assay in all cases: Bacterial growth minimal inhibitory concentration (broth microdilution, CLSI M7-A7)
[1] = system: Acinetobacter baumannii T6474; format: cell-based; settings: cation-adjusted Mueller-Hinton Broth, microdilution, multiply-resistant (quinolone-resistant) strain; for MIC: Acinetobacter baumannii, T6474, read-out: MIC for A. Baumannii T6474
Procedure: (§1) Minimal Inhibitory Concentrations (MICs; mg/L) were determined in cation-adjusted Mueller-Hinton Broth by a microdilution method following the description given in “Methods for Dilution Antimicrobial Susceptibility Tests for Bacteria that Grow Aerobically”, Approved standard, 7th ed., Clinical and Laboratory Standards Institute (CLSI) Document M7-A7, Wayne, Pa., USA (2006).
(§2) All Example compounds, except the compound of Example 62, were tested against several Gram-positive and Gram-negative bacteria. […] K. pneumoniae A-651 and Acinetobacter baumannii T6474 are multiply-resistant strains (in particular quinolone-resistant), while E. coli ATCC25922 and P. aeruginosa ATCC27853 are quinolone-sensitive strains.

[2] = system: P. aeruginosa ATCC27853; format: cell-based, Pseudomonas aeruginosa; settings: cation-adjusted Mueller-Hinton Broth, microdilution, quinolone-sensitive strain; for MIC: Pseudomonas aeruginosa, ATCC27853, read-out: MIC for P. aeruginosa ATCC27853
Procedure: as §1, §2

[3] = system: K. pneumoniae A-651; format: cell-based, Klebsiella pneumoniae; settings: cation-adjusted Mueller-Hinton Broth, microdilution, multiply-resistant (quinolone-resistant) strain; for MIC: Klebsiella pneumoniae, A651, read-out: MIC for K. Pneumoniae A-651
Procedure: as §1, §2

[4] = system: E. coli ATCC25922; format: cell-based, Escherichia coli; settings: cation-adjusted Mueller-Hinton Broth, microdilution, quinolone-sensitive strain; for MIC: Escherichia coli, ATCC25922, read-out: MIC for E. coli ATCC25922
Procedure: as §1, §2

| Compound | MIC [1] | MIC [2] | MIC [3] | MIC [4] | MIC for A. Baumannii T6474 [1] | MIC for P. aeruginosa ATCC27853 [2] | MIC for K. Pneumoniae A-651 [3] | MIC for E. coli ATCC25922 [4] |
| --- | --- | --- | --- | --- | --- | --- | --- | --- |
| C[C@@](CCn1cc2cc(C#CC#C[C@H](O)CO)ccc2n1)(C(=O)NO)S(C)(=O)=O [Example 55, (R)-4-(5-((S)-5,6-dihydroxyhexa-1,3-diyn-1-yl)-2H-indazol-2-yl)-N-hydroxy-2-methyl-2-(methylsulfonyl)butanamide] | > 32 µg/mL | 2 µg/mL (≈ 4.77 µM) | 4 µg/mL (≈ 9.54 µM) | 2 µg/mL (≈ 4.77 µM) |  |  |  |  |
| C[C@@](CCn1cc2cc(C#Cc3ccc(CO)cc3F)ccc2n1)(C(=O)NO)S(C)(=O)=O [Example 39, (R)-4-[5-(2-fluoro-4-hydroxymethyl-phenylethynyl)-indazol-2-yl]-N-hydroxy-2-methylsulfonyl-2-methyl-butanamide] | 0.25 µg/mL (≈ 0.544 µM) | 1 µg/mL (≈ 2.18 µM) | 0.125 µg/mL (≈ 0.272 µM) | 0.125 µg/mL (≈ 0.272 µM) |  |  |  |  |
| C[C@@](CCn1cc2cc(C#CC#C[C@H]3C[C@@H]3CO)ccc2n1)(C(=O)NO)S(C)(=O)=O.O=CO [Example 36, (R)—N-hydroxy-4-(5-(((1S,2S)-2-(hydroxymethyl)cyclopropyl)buta-1,3-diyn-1-yl)-2H-indazol-2-yl)-2-methyl-2-(methylsulfonyl)butanamide formate] | 2 µg/mL | 0.25 µg/mL | 0.125 µg/mL | 0.063 µg/mL |  |  |  |  |
| C[C@@](CCn1cc2cc(C#CC#CC3(CO)CC3)ccc2n1)(C(=O)NO)S(C)(=O)=O [Example 56, (R)—N-hydroxy-4-(5-((1-(hydroxymethyl)cyclopropyl)buta-1,3-diyn-1-yl)-2H-indazol-2-yl)-2-methyl-2-(methylsulfonyl)butanamide] | > 32 µg/mL | 0.5 µg/mL (≈ 1.16 µM) | 0.5 µg/mL (≈ 1.16 µM) | 0.25 µg/mL (≈ 0.582 µM) |  |  |  |  |
| C[C@@](CCn1cc2cc(C#Cc3ccc(NC(=O)CO)cc3)ccc2n1)(C(=O)NO)S(C)(=O)=O [Example 47, (R)—N-hydroxy-4-(5-((4-(2-hydroxyacetamido)phenyl)ethynyl)-2H-indazol-2-yl)-2-methyl-2-(methylsulfonyl)butanamide] | 1 µg/mL (≈ 2.06 µM) | 1 µg/mL (≈ 2.06 µM) | 0.5 µg/mL (≈ 1.03 µM) | 0.25 µg/mL (≈ 0.516 µM) |  |  |  |  |
| CC(C)(N)CC#CC#Cc1ccc2nn(CC[C@](C)(C(=O)NO)S(C)(=O)=O)cc2c1 [Example 82, (R)-4-(5-(6-amino-6-methylhepta-1,3-diyn-1-yl)-2H-indazol-2-yl)-N-hydroxy-2-methyl-2-(methylsulfonyl)butanamide] | > 32 µg/mL | 4 µg/mL (≈ 9.29 µM) | 8 µg/mL (≈ 18.6 µM) | 4 µg/mL (≈ 9.29 µM) |  |  |  |  |
| C[C@@](CCn1cc2cc(-c3ccc(OC[C@H](O)CO)cc3F)ccc2n1)(C(=O)NO)S(C)(=O)=O [Example 58, (R)-4-(5-(4-((R)-2,3-dihydroxypropoxy)-2-fluorophenyl)-2H-indazol-2-yl)-N-hydroxy-2-methyl-2-(methylsulfonyl)butanamide] | 8 µg/mL (≈ 16.1 µM) | 2 µg/mL (≈ 4.04 µM) | 4 µg/mL (≈ 8.07 µM) | 2 µg/mL (≈ 4.04 µM) |  |  |  |  |
| C[C@@](CCn1cc2cc(C#CC#CC3(CO)CCC3)ccc2n1)(C(=O)NO)S(C)(=O)=O [Example 73, (R)—N-hydroxy-4-(5-((1-(hydroxymethyl)cyclobutyl)buta-1,3-diyn-1-yl)-2H-indazol-2-yl)-2-methyl-2-(methylsulfonyl)butanamide] | 32 µg/mL (≈ 72.1 µM) | 1 µg/mL (≈ 2.25 µM) | 0.25 µg/mL (≈ 0.564 µM) | 0.125 µg/mL (≈ 0.282 µM) |  |  |  |  |
| COc1ccc(-c2cc3cn(CC[C@](C)(C(=O)NO)S(C)(=O)=O)nc3cc2F)cc1 [Example 3, (R)-4-[6-fluoro-5-(4-methoxy-phenyl)-indazol-2-yl]-N-hydroxy-2-methylsulfonyl-2-methyl-butanamide] | 0.5 µg/mL (≈ 1.15 µM) | 2 µg/mL (≈ 4.59 µM) | 0.125 µg/mL (≈ 0.287 µM) | 0.063 µg/mL (≈ 0.145 µM) |  |  |  |  |
| C[C@@H](O)c1ccc(C#Cc2ccc3nn(CC[C@](C)(C(=O)NO)S(C)(=O)=O)cc3c2)cc1 [Example 33, (R)—N-hydroxy-4-(5-((4-((R)-1-hydroxyethyl)phenyl)ethynyl)-2H-indazol-2-yl)-2-methyl-2-(methylsulfonyl)butanamide] | 2 µg/mL (≈ 4.39 µM) | 0.5 µg/mL (≈ 1.1 µM) | 0.125 µg/mL (≈ 0.274 µM) | 0.063 µg/mL (≈ 0.138 µM) |  |  |  |  |
| C[C@@](CCn1cc2cc(C#CC#C[C@H]3C[C@@H]3CO)c(F)cc2n1)(C(=O)NO)S(C)(=O)=O [Example 53, (R)-4-(6-fluoro-5-(((1S,2S)-2-(hydroxymethyl)cyclopropyl)buta-1,3-diyn-1-yl)-2H-indazol-2-yl)-N-hydroxy-2-methyl-2-(methylsulfonyl)butanamide] | 2 µg/mL (≈ 4.47 µM) | 0.5 µg/mL (≈ 1.12 µM) | 0.125 µg/mL (≈ 0.279 µM) | ≤ 0.063 µg/mL |  |  |  |  |
| C[C@@](CCn1cc2cc(C#Cc3ccc(C4(O)COC4)cc3)ccc2n1)(C(=O)NO)S(C)(=O)=O [Example 20, (R)—N-hydroxy-4-{5-[4-(3-hydroxy-oxetan-3-yl)-phenylethynyl]-indazol-2-yl}-2-methylsulfonyl-2-methyl-butanamide] | 0.5 µg/mL (≈ 1.03 µM) | 0.5 µg/mL (≈ 1.03 µM) | 0.125 µg/mL (≈ 0.259 µM) | 0.25 µg/mL (≈ 0.517 µM) |  |  |  |  |
| C[C@@](CCn1cc2cc(C#CC#C[C@@H]3CC[C@H](N)CO3)ccc2n1)(C(=O)NO)S(C)(=O)=O (relative stereo) [Example 61, (R)-4-(5-(((2S*,5S*)-5-aminotetrahydro-2H-pyran-2-yl)buta-1,3-diyn-1-yl)-2H-indazol-2-yl)-N-hydroxy-2-methyl-2-(methylsulfonyl)butanamide] | > 8 µg/mL | 1 µg/mL (≈ 2.18 µM) | 4 µg/mL (≈ 8.72 µM) | 2 µg/mL (≈ 4.36 µM) |  |  |  |  |
| CC#CCOc1ccc2nn(CCC(C)(C(=O)NO)S(C)(=O)=O)cc2c1 (racemic) [RE4, (RS)-4-(5-but-2-ynyloxy-indazol-2-yl)-N-hydroxy-2-methylsulfonyl-2-methyl-butanamide] | 32 µg/mL (≈ 84.3 µM) | 8 µg/mL (≈ 21.1 µM) | 8 µg/mL (≈ 21.1 µM) | 4 µg/mL (≈ 10.5 µM) |  |  |  |  |
| C[C@@](CCn1cc2cc(C#Cc3ccc(CN4CCOCC4)cc3)ccc2n1)(C(=O)NO)S(C)(=O)=O.O=CO [Example 7, (R)—N-hydroxy-2-methylsulfonyl-2-methyl-4-[5-(4-morpholin-4-ylmethyl-phenylethynyl)-indazol-2-yl]-butanamide formate] | 0.5 µg/mL | 2 µg/mL | 0.125 µg/mL | 0.25 µg/mL |  |  |  |  |
| C[C@@](CCn1cc2cc(C#CC#CC3(N)CC3)ccc2n1)(C(=O)NO)S(C)(=O)=O [Example 65, (R)-4-(5-((1-aminocyclopropyl)buta-1,3-diyn-1-yl)-2H-indazol-2-yl)-N-hydroxy-2-methyl-2-(methylsulfonyl)butanamide] | > 32 µg/mL | 0.5 µg/mL (≈ 1.21 µM) | 0.125 µg/mL (≈ 0.302 µM) | 0.125 µg/mL (≈ 0.302 µM) |  |  |  |  |
| C[C@@](CCn1cc2cc(C#CC#C[C@@H]3C[C@H]3CN)ccc2n1)(C(=O)NO)S(C)(=O)=O [Example 72, (R)-4-(5-(((1R,2R)-2-(aminomethyl)cyclopropyl)buta-1,3-diyn-1-yl)-2H-indazol-2-yl)-N-hydroxy-2-methyl-2-(methylsulfonyl)butanamide] | > 8 µg/mL | 2 µg/mL (≈ 4.67 µM) | 4 µg/mL (≈ 9.33 µM) | 2 µg/mL (≈ 4.67 µM) |  |  |  |  |
| C[C@@](CCn1cc2cc(C#CC#C[C@@H]3C[C@H]3CO)ccc2n1)(C(=O)NO)S(C)(=O)=O.O=CO [Example 37] |  |  |  |  | 2 µg/mL | 0.25 µg/mL | 0.063 µg/mL | 0.063 µg/mL |
| COc1ccc(-c2ccc3nn(CC[C@](C)(C(=O)NO)S(C)(=O)=O)cc3c2F)c(F)c1 [Example 6, (R)-4-[4-fluoro-5-(2-fluoro-4-methoxy-phenyl)-indazol-2-yl]-N-hydroxy-2-methylsulfonyl-2-methyl-butanamide] | 2 µg/mL (≈ 4.41 µM) | 4 µg/mL (≈ 8.82 µM) | 0.5 µg/mL (≈ 1.1 µM) | 0.125 µg/mL (≈ 0.276 µM) |  |  |  |  |
| CC(CCn1cc2cc(-c3ccc(OCCN4CCOCC4)cc3)ccc2n1)(C(=O)NO)S(C)(=O)=O.O=CO (racemic) [RE2, (RS)—N-hydroxy-2-methylsulfonyl-2-methyl-4-{5-[4-(2-morpholin-4-yl-ethoxy)-phenyl]-indazol-2-yl}-butanamide formic acid salt] | 4 µg/mL | 4 µg/mL | 1 µg/mL | 1 µg/mL |  |  |  |  |
| C[C@@](CCn1cc2cc(C#Cc3cncnc3)ccc2n1)(C(=O)NO)S(C)(=O)=O [Example 59, (R)—N-hydroxy-2-methyl-2-(methylsulfonyl)-4-(5-(pyrimidin-5-ylethynyl)-2H-indazol-2-yl)butanamide] | 8 µg/mL (≈ 19.3 µM) | 8 µg/mL (≈ 19.3 µM) | 8 µg/mL (≈ 19.3 µM) | 4 µg/mL (≈ 9.67 µM) |  |  |  |  |
| C[C@@](CCn1cc2cc(C#CC#CCC3(O)CC(CO)C3)ccc2n1)(C(=O)NO)S(C)(=O)=O (some centres unmarked) [Example 66] |  |  |  |  | >32 µg/mL | 2 µg/mL | 4 µg/mL | 1 µg/mL |
| C[C@@](CCn1cc2cc(C#Cc3ccc(C4(N)COC4)cc3)ccc2n1)(C(=O)NO)S(C)(=O)=O.Cc1ccc(S(=O)(=O)O)cc1 [Example 10, (R)-4-{5-[4-(3-amino-oxetan-3-yl)-phenylethynyl]-indazol-2-yl}-N-hydroxy-2-methylsulfonyl-2-methyl-butanamide toluene-4-sulfonate] | 2 µg/mL | 2 µg/mL | 0.5 µg/mL | 0.5 µg/mL |  |  |  |  |
